In publication PMC7497403, “Development of Potent PfCLK3 Inhibitors Based on TCMDC-135051 as a New Class of Antimalarials” (Journal of Medicinal Chemistry, 2020):

Columns and labels:
Test in all cases: Kinase screen
Type in all cases: biochemical
CAMK1 = CAMK1 (Homo sapiens, UniProt Q14012)
Excerpt: (§1) With verapamil used as a positive control.
(§2) V. Distribution coefficient (LogD7.4)

EPH-B2 = EPH-B2 (Homo sapiens, UniProt P29323)
Excerpt: as §1, §2

MKK2 = MKK2 (Homo sapiens, UniProt P36507)
Excerpt: as §1, §2

JAK3 = JAK3 (Homo sapiens, UniProt P52333)
Excerpt: as §1, §2

PAK5 = PAK5 (Homo sapiens, UniProt Q9P286)
Excerpt: as §1, §2

TESK1 = TESK1 (Homo sapiens, UniProt Q15569)
Excerpt: as §1, §2

MPSK1 = MPSK1 (Homo sapiens, UniProt O75716)
Excerpt: as §1, §2

PKBa = PKBa (Homo sapiens, UniProt P31749)
Excerpt: as §1, §2

MLK1 = MLK1 (Homo sapiens, UniProt P80192)
Excerpt: as §1, §2

MARK3 = MARK3 (Homo sapiens, UniProt P27448)
Excerpt: as §1, §2

FGF-R1 = FGF-R1 (Homo sapiens, UniProt P11362)
Excerpt: as §1, §2

SRPK1 = SRPK1 (Homo sapiens, UniProt Q96SB4)
Excerpt: as §1, §2

p38a MAPK = p38a MAPK (Homo sapiens, UniProt Q16539)
Excerpt: as §1, §2

Aurora B = Aurora B (Homo sapiens, UniProt Q96GD4)
Excerpt: as §1, §2

CK2 = CK2 (Homo sapiens, UniProt P68400)
Excerpt: as §1, §2

PLK1 = PLK1 (Homo sapiens, UniProt P53350)
Excerpt: as §1, §2

CDK9-Cyclin T1 = CDK9-Cyclin T1 (Homo sapiens, UniProt P50750)
Excerpt: as §1, §2

YES1 = YES1 (Homo sapiens, UniProt P07947)
Excerpt: as §1, §2

JNK3 = JNK3 (Homo sapiens, UniProt P53779)
Excerpt: as §1, §2

IKKb = IKKb (Homo sapiens, UniProt O14920)
Excerpt: as §1, §2

PHK = PHK (Homo sapiens, UniProt Q16816)
Excerpt: as §1, §2

RSK2 = RSK2 (Homo sapiens, UniProt P51812)
Excerpt: as §1, §2

MEKK1 = MEKK1 (Homo sapiens, UniProt Q13233)
Excerpt: as §1, §2

SmMLCK = SmMLCK (Homo sapiens, UniProt Q15746)
Excerpt: as §1, §2

IRAK1 = IRAK1 (Homo sapiens, UniProt P51617)
Excerpt: as §1, §2

PRK2 = PRK2 (Homo sapiens, UniProt Q16513)
Excerpt: as §1, §2

PIM2 = PIM2 (Homo sapiens, UniProt Q9P1W9)
Excerpt: as §1, §2

MNK1 = MNK1 (Homo sapiens, UniProt Q9BUB5)
Excerpt: as §1, §2

NEK6 = NEK6 (Homo sapiens, UniProt Q9HC98)
Excerpt: as §1, §2

MSK1 = MSK1 (Homo sapiens, UniProt O75582)
Excerpt: as §1, §2

EPH-A2 = EPH-A2 (Homo sapiens, UniProt P29317)
Excerpt: as §1, §2

BRSK2 = BRSK2 (Homo sapiens, UniProt Q8IWQ3)
Excerpt: as §1, §2

ULK2 = ULK2 (Homo sapiens, UniProt Q8IYT8)
Excerpt: as §1, §2

p38d MAPK = p38d MAPK (Homo sapiens, UniProt O15264)
Excerpt: as §1, §2

TrkA = TrkA (Homo sapiens, UniProt P04629)
Excerpt: as §1, §2

PKCγ = PKCγ (Homo sapiens, UniProt P05129)
Excerpt: as §1, §2

HIPK2 = HIPK2 (Homo sapiens, UniProt Q9H2X6)
Excerpt: as §1, §2

CAMKKb = CAMKKb (Homo sapiens, UniProt Q96RR4)
Excerpt: as §1, §2

TAK1 = TAK1 (Homo sapiens, UniProt O43318)
Excerpt: as §1, §2

WNK1 = WNK1 (Homo sapiens, UniProt Q9H4A3)
Excerpt: as §1, §2

MKK6 = MKK6 (Homo sapiens, UniProt P52564)
Excerpt: as §1, §2

ABL = ABL (Homo sapiens, UniProt P00519)
Excerpt: as §1, §2

BRSK1 = BRSK1 (Homo sapiens, UniProt Q8TDC3)
Excerpt: as §1, §2

MST2 = MST2 (Homo sapiens, UniProt Q13188)
Excerpt: as §1, §2

IR = IR (Homo sapiens, UniProt P06213)
Excerpt: as §1, §2

BRK = BRK (Homo sapiens, UniProt Q13882)
Excerpt: as §1, §2

IKKb, sequence (O14920 whole entry): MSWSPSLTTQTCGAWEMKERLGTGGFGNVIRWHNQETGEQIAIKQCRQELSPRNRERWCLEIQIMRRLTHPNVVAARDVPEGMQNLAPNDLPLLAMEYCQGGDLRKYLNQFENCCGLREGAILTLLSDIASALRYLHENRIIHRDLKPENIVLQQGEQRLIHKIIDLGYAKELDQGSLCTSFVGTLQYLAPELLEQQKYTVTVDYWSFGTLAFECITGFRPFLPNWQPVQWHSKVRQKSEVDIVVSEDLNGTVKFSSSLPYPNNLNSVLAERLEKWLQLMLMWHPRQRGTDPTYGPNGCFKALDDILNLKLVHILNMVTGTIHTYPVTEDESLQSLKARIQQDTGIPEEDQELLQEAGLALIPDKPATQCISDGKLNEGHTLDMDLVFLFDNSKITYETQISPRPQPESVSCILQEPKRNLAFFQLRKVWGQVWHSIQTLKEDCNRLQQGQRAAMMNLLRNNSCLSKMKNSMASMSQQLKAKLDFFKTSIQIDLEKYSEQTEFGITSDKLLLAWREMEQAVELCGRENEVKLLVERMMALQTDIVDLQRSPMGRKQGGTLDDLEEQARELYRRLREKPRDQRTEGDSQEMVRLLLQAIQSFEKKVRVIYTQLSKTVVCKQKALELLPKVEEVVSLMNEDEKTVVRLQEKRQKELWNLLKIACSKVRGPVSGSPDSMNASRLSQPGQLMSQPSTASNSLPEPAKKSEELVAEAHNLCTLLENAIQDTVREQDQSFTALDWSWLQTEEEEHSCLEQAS
TrkA, sequence (P04629 33-796): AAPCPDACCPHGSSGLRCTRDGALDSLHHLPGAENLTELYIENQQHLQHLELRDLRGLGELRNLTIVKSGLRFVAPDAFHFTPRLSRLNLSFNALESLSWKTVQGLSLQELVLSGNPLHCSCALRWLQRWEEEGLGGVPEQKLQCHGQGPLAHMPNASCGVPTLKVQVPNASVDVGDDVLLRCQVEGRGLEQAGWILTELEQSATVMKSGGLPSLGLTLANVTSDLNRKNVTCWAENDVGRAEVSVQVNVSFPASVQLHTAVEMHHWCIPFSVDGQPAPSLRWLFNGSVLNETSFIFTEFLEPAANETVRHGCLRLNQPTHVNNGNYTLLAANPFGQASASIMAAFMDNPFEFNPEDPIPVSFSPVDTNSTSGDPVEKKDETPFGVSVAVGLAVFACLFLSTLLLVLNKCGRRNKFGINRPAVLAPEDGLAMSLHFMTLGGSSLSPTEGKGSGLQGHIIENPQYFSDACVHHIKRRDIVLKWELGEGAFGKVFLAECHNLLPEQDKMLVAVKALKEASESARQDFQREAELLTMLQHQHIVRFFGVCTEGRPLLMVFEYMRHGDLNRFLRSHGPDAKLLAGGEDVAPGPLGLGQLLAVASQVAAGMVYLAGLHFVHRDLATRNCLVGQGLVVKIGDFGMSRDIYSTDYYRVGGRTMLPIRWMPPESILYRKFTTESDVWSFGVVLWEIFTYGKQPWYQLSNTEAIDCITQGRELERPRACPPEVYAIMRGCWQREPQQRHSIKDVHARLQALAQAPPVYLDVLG
EPH-B2, sequence (P29323 19-1055): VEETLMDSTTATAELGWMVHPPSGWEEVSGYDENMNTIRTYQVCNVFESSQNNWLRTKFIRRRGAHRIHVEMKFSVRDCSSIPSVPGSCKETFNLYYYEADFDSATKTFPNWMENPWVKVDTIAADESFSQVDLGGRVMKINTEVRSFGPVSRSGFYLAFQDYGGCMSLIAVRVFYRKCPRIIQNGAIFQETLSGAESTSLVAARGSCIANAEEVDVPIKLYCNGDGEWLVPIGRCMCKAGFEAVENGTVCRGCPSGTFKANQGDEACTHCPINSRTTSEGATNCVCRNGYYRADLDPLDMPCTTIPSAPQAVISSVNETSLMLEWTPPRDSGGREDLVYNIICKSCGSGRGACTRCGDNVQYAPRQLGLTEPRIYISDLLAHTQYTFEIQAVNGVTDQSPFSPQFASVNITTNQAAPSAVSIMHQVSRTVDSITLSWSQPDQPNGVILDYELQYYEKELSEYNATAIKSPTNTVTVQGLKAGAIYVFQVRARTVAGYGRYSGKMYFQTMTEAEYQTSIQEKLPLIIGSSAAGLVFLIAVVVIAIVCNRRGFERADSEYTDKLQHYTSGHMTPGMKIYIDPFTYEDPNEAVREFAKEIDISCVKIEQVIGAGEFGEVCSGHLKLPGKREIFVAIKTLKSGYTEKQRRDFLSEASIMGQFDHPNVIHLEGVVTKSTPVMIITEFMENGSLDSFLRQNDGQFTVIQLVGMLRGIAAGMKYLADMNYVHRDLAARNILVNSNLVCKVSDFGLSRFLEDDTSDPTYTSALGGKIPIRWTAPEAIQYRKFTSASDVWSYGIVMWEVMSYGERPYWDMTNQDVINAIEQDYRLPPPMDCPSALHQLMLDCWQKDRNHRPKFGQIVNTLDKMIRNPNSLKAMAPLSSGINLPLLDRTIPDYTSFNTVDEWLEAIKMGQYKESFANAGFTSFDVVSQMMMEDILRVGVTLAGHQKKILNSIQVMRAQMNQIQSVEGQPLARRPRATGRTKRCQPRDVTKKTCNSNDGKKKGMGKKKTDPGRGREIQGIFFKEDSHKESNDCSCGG
PAK5, sequence (Q9P286 whole entry): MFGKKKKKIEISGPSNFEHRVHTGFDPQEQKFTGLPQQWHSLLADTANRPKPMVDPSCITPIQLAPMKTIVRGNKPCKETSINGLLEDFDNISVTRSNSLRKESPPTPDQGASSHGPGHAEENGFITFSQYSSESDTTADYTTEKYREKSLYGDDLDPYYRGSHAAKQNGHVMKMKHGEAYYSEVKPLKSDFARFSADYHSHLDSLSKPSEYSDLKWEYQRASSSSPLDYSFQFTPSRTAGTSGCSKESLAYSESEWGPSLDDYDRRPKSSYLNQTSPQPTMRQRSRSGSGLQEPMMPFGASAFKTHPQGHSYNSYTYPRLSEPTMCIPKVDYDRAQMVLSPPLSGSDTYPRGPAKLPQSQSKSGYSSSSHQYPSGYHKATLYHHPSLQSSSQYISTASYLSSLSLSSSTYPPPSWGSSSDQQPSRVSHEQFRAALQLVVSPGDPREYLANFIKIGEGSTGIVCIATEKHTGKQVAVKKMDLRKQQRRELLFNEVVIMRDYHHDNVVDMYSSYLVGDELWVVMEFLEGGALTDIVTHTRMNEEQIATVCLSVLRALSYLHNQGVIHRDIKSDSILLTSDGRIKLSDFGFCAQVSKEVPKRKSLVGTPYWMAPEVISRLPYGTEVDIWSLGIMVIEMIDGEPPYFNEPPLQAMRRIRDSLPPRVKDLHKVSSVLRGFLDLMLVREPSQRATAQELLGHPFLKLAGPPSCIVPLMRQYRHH
MKK6, sequence (P52564 whole entry): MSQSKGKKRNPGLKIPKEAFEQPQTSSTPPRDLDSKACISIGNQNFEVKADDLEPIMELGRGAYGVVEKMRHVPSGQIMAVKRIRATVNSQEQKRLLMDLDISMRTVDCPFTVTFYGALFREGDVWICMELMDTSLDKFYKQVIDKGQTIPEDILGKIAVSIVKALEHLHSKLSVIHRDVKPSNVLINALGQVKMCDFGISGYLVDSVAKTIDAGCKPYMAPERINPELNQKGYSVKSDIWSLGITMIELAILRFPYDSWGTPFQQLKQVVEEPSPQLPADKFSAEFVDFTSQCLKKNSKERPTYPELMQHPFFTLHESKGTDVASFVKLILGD
MLK1, sequence (P80192 whole entry): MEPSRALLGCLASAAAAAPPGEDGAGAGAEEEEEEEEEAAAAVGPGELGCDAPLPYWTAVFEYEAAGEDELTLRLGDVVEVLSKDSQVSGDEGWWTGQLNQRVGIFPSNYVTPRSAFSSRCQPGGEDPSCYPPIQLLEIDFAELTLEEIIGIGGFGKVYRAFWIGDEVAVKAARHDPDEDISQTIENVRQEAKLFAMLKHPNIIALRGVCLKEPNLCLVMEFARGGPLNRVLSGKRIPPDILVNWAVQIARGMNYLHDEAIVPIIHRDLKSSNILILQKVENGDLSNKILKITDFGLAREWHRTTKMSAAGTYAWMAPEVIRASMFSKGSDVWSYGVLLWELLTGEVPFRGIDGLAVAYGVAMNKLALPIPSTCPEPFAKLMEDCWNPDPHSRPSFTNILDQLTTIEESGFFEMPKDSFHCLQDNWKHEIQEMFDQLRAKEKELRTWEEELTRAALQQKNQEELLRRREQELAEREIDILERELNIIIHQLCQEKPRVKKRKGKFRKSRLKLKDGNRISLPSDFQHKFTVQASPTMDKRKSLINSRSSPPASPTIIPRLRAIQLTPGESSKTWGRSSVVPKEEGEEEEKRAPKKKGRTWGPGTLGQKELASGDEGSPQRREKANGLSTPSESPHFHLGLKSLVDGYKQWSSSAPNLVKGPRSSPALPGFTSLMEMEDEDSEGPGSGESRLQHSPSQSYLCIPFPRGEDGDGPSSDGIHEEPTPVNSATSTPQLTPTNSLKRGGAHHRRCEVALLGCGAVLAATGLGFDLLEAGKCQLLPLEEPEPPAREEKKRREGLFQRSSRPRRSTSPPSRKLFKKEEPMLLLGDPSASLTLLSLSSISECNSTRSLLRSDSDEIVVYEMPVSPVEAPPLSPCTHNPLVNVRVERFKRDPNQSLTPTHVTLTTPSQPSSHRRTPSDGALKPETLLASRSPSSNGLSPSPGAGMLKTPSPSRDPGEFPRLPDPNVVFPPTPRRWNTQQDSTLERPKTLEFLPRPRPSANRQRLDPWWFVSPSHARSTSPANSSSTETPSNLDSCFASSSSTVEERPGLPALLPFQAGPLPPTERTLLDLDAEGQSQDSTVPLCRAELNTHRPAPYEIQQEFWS
NEK6, sequence (Q9HC98 whole entry): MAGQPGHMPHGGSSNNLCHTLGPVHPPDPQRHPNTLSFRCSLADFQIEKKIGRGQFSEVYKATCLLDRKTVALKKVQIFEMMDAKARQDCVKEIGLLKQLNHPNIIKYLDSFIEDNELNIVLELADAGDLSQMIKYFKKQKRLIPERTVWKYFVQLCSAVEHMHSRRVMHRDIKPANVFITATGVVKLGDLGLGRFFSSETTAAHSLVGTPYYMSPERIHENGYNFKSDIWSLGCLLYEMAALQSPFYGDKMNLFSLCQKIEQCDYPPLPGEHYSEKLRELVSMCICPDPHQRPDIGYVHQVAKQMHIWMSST

SMILES: CCN(CC)Cc1ccc(OC)c(-c2cc3c(-c4ccc(C(=O)O)c(C(C)C)c4)ccnc3[nH]2)c1 [analogue 1, 4-(2-(5-((Diethylamino)methyl)-2-methoxyphenyl)-1H-pyrrolo[2,3-b]pyridin-4-yl)-2-isopropylbenzoic Acid]
- activity at 1 µM (CAMK1): 86%
- activity at 1 µM (EPH-B2): 100%
- activity at 1 µM (MKK2): 17%
- activity at 1 µM (JAK3): 22%
- activity at 1 µM (PAK5): 75%
- activity at 1 µM (TESK1): 78%
- activity at 1 µM (MPSK1): 104%
- activity at 1 µM (PKBa): 115%
- activity at 1 µM (MLK1): 111%
- activity at 1 µM (MARK3): 34%
- activity at 1 µM (FGF-R1): 50%
- activity at 1 µM (SRPK1): 92%
- activity at 1 µM (p38a MAPK): 89%
- activity at 1 µM (Aurora B): 59%
- activity at 1 µM (CK2): 90%
- activity at 1 µM (PLK1): 104%
- activity at 1 µM (CDK9-Cyclin T1): 2%
- activity at 1 µM (YES1): 67%
- activity at 1 µM (JNK3): 52%
- activity at 1 µM (IKKb): 144%
- activity at 1 µM (PHK): 10%
- activity at 1 µM (RSK2): 87%
- activity at 1 µM (MEKK1): 112%
- activity at 1 µM (SmMLCK): 80%
- activity at 1 µM (IRAK1): 6%
- activity at 1 µM (PRK2): 48%
- activity at 1 µM (PIM2): 93%
- activity at 1 µM (MNK1): 0%
- activity at 1 µM (NEK6): 96%
- activity at 1 µM (MSK1): 99%
- activity at 1 µM (EPH-A2): 64%
- activity at 1 µM (BRSK2): 74%
- activity at 1 µM (ULK2): 96%
- activity at 1 µM (p38d MAPK): 117%
- activity at 1 µM (TrkA): 87%
- activity at 1 µM (PKCγ): 114%
- activity at 1 µM (HIPK2): 56%
- activity at 1 µM (CAMKKb): 2%
- activity at 1 µM (TAK1): 25%
- activity at 1 µM (WNK1): 105%
- activity at 1 µM (MKK6): 100%
- activity at 1 µM (ABL): 59%
- activity at 1 µM (BRSK1): 66%
- activity at 1 µM (MST2): 68%
- activity at 1 µM (IR): 77%
- activity at 1 µM (BRK): 33%
